Values joined by “and” are separate entries in the source; they are usually repeats but may differ in a detail not shown here. Equal entries are not always repeated. Where two headings read alike, the source gives them in different places.
Legend:
17β-HSD10 [1] = system: 17β-HSD10; set-up: method as in PMID 37458164; settings: 17β-HSD10 inhibition, literature value; cited from earlier work
17β-HSD10 [2] = target: T1, 17β-HSD10 (Homo sapiens, UniProt Q99714); experiment: Inhibition of 17β-estradiol to estrone transformation by purified recombinant 17β-HSD10 (NADH fluorescence); format: biochemical; settings: for inhibition at 10 µM: read-out: Inhibition at 10 µM (%) (this study); for IC50: purified recombinant 17β-HSD10, 17β-estradiol as substrate, means ± SEM (n = 4); for inhibition at 1 µM: read-out: Inhibition at 1 µM (%) (this study)
T1 construct: inferred from Ni-NTA purification with imidazole elution; made in house; host or cells: E. coli BL21 (DE3)
T1 sequence (Q99714 1-261): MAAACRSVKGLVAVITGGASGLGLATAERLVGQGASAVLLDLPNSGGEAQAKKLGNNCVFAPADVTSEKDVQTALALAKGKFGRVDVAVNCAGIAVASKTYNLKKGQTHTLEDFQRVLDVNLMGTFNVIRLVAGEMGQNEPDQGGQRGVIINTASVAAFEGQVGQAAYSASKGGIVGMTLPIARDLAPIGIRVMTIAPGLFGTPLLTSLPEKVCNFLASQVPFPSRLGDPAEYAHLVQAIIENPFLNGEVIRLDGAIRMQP
Protocol: As standards, we used the known inhibitor AG18051 as the positive control and the published steroidal compounds,[18] namely, pregnenolone, testosterone, dihydrotestosterone, androsterone, epiandrosterone, and dehydroepiandrosterone.
17β-HSD10 was performed as described previously.[11] Briefly, the autoinduction and overexpression were performed at 25 °C for 18 h in the E. coli BL21 (DE3) strain. The bacterial pellet was resuspended in lysis buffer that consisted of sodium phosphate buffer ([…]), NaCl (150 mM), and imidazole (10 mM, pH 8.0) with 1 mg/mL lysozyme and benzonase (150 U/mL). cOmplete EDTA-free protease inhibitor cocktail was incubated for 20 min on ice and then sonicated (12 × 10 s pulses with 30 s pauses). The supernatant was applied to the Ni-NTA agarose resin after centrifugation (16 000g, 10 min, 4 °C). Then, the solution was incubated on ice for 1 h with gentle stirring.
The standard steroids were screened at 1 and 10 μM concentrations, and the tested compounds and standard AG18051 were screened at 10 μM concentration. For compounds with at least 50% inhibition of 17β-HSD10, the IC50 values were determined.
Steroid stock solutions (5 mM) were further diluted with DMSO to the working concentrations. DMSO was used as a vehicle control, and AG18051 was used as a control inhibitor. The enzyme activity was determined fluorometrically at 37 °C in the activity assay buffer [100 mM potassium phosphate buffer (pH 8.0)]. The general reaction mixture (200 μL per well) consisted of 17β-estradiol (25 μM, DMSO), NAD+ (500 μM, deionized water), recombinant 17β-HSD10 (45 nM), and different concentrations of inhibitor (2.2% (v/v) final concentration of DMSO as solvent). Before the addition of substrate, the reaction mixture of enzyme, cofactor, and inhibitor in the assay buffer was preincubated for 5 min at 37 °C. The increase of fluorescence (Ex/Em = 340/460 nm) due to the formation of NADH was monitored for 20 min (30 s intervals). For IC50 value determination, dose–response inhibition at 11 different concentrations of inhibitor (0.6–33.75 μM) was determined and the data were analyzed by GraphPad Prism 8.4.3 (GraphPad Software Inc.). All measurements were performed in a tetraplicate.

[3] = set-up: method as in PMID 30296546; settings: cited from earlier work
[4] = set-up: method as in PMID 30296546; settings: cited from earlier work; remark: listed apart in the source
Caco-2 cells = system: Caco-2 cells; set-up: method as in PMID 30296546; settings: cited from earlier work
HEK-293 cell line = system: HEK-293 cell line; set-up: method as in PMID 37458164; settings: cited from earlier work
17β-HSD10 [5] = system: 17β-HSD10; set-up: method as in PMID 30297283; settings: in vitro, recombinant enzyme, cited from earlier work
17β-HSD10 [6] = settings: cited from earlier work; for Inhibition at 1 µM (%) Ayan et al. 2012: 1 µM steroid, different (cellular) assay, ref Ayan et al. 2012 (ref 18)
[7] = 10 μM compound, 17β-estradiol as substrate, means ± SD (n = 4)

Row | SMILES | IC50 (17β-HSD10 [2]) | human plasma stability, % remaining after 8 h [3] [%] | rat plasma stability, % remaining after 8 h [4] [%] | Caco-2 cell permeability (50 μM) Papp (Caco-2 cells) | inhibition at 1 µM (17β-HSD10 [2]) [%] | inhibition at 10 µM (17β-HSD10 [2]) [%] | Inhibition at 1 µM (%) Ayan et al. 2012 (17β-HSD10 [6]) [%] | also measured
1 | O=C(C(c1ccccc1)n1cnc2[nH]ncc2c1=S)N1CCCCCC1 (stereo not shown) [AG18051, 1-azepan-1-yl-2-phenyl-2-(4-thioxo-1,4-dihydropyrazolo [3–d]pyrimidin-5-yl)-ethanone] |  |  |  |  |  |  |  | IC50 (17β-HSD10 [1]): 0.09 ± 0.01 µM
2 | CC(=O)[C@H]1CC[C@H]2[C@@H]3CC=C4C[C@@H](OC(=O)CCCC(=O)O)CC[C@]4(C)[C@H]3CC[C@]12C [Compound 10, 20-Oxo-pregn-5-en-3β-yl Hemiglutarate] | 16.9 ± 1.33 µM |  |  |  |  |  |  | inhibition at 10 µM (17β-HSD10 [2]; [7]): ~50%
3 | CC[C@H]1CC[C@H]2[C@@H]3CC=C4C[C@@H](OC(=O)CCC(=O)O)CC[C@]4(C)[C@H]3CC[C@]12C [Compound 14, Pregn-5-en-3β-yl Hemisuccinate] | 9.94 ± 0.23 µM | 100 | 55 | 5.7 × 10^–6 cm/s |  |  |  | 
4 | CC[C@H]1CC[C@H]2[C@@H]3CC=C4C[C@@H](OC(=O)CCCC(=O)O)CC[C@]4(C)[C@H]3CC[C@]12C [Compound 15, Pregn-5-en-3β-yl Hemiglutarate] | 9.01 ± 0.43 µM | 100 | 99 | 1.9 × 10^–6 cm/s |  |  |  | 
5 | CC[C@H]1CC[C@H]2[C@@H]3CC=C4C[C@@H](OC(=O)CCCCC(=O)O)CC[C@]4(C)[C@H]3CC[C@]12C [Compound 16, Pregn-5-en-3β-yl Hemiadipate] | 9.29 ± 0.28 µM | 94 | 43 | 1.2 × 10^–6 cm/s |  |  |  | 
6 | C[C@@]12CCC[C@H]1[C@@H]1CC=C3C[C@@H](OC(=O)CCC(=O)O)CC[C@]3(C)[C@H]1CC2 [Compound 21, Androst-5-en-3β-yl Hemisuccinate] | 7.33 ± 0.45 µM | 99 | 88 | 1.0 × 10^–4 cm/s |  |  |  | 
7 | C[C@@]12CCC[C@H]1[C@@H]1CC=C3C[C@@H](OC(=O)CCCC(=O)O)CC[C@]3(C)[C@H]1CC2 [Compound 22, Androst-5-en-3β-yl Hemiglutarate] | ~6.95 µM and 6.95 µM | 98 | 57 | 1.2 × 10^–5 cm/s |  |  |  | 
8 | C[C@@]12CCC[C@H]1[C@@H]1CC=C3C[C@@H](OC(=O)CCCCCC(=O)O)CC[C@]3(C)[C@H]1CC2 [Compound 24, Androst-5-en-3β-yl Hemipimelate] | 7.17 ± 0.4 µM | 100 | 38 | 1.3 × 10^–6 cm/s |  |  |  | 
9 | CC(=O)[C@H]1CC[C@H]2[C@@H]3CCC4=C[C@@H](O)CC[C@]4(C)[C@H]3CC[C@]12C [Compound 26] |  |  |  |  |  |  |  | toxicity for HEK-293 cell line (HEK-293 cell line): toxic
10 | COc1cccc(CN2CCN(C[C@@]3(O)CC[C@@]4(C)[C@@H](CC[C@@H]5[C@@H]4CC[C@]4(C)C(=O)CC[C@@H]54)C3)CC2)c1 [RM-532-46, (3α,5α,17α)-3-Hydroxy-3-[4-(3-methoxybenzyl)piperazin-1-yl]methylandrostan-17-one] |  |  |  |  |  |  |  | IC50 (17β-HSD10 [5]; 17β-estradiol, read-out: IC50 using 17β-estradiol as substrate): 610 µM; IC50 (17β-HSD10 [5]; allopregnanolone, read-out: IC50 using allopregnanolone as substrate): 235 µM; IC50 (17β-HSD10 [6]; cellular assay using HEK-293 cells): 0.55 µM
11 | C[C@]12CC[C@@H](O)C[C@@H]1CC[C@@H]1[C@@H]2CC[C@]2(C)C(=O)CC[C@@H]12 [androsterone] |  |  |  |  | 3.2 ± 2.2 | 0 | 7.0 ± 5.9 | 
12 | C[C@]12CC[C@H](O)CC1=CC[C@@H]1[C@@H]2CC[C@]2(C)C(=O)CC[C@@H]12 [dehydroepiandrosterone] |  |  |  |  | 5.4 ± 3.7 | 6.6 ± 3.5 | 0.0 ± 3.2 | 
13 | C[C@]12CCC(=O)C[C@@H]1CC[C@@H]1[C@@H]2CC[C@]2(C)[C@@H](O)CC[C@@H]12 [dihydrotestosterone] |  |  |  |  | 0 | 6.3 ± 2 | 15 ± 0.8 | 
14 | C[C@]12CC[C@H](O)C[C@@H]1CC[C@@H]1[C@@H]2CC[C@]2(C)C(=O)CC[C@@H]12 [epi-androsterone, epiandrosterone] |  |  |  |  | 2 ± 4.9 | 7 ± 2.5 | 6.0 ± 1.0 | 
15 | CC(=O)C1CCC2C3CC=C4CC(O)CCC4(C)C3CCC12C (stereo not shown) [pregnenolone] |  |  |  |  |  |  | 11 ± 2.6 | inhibition at 1 µM (17β-HSD10 [2]; 1 µM steroid, 17β-estradiol as substrate, means ± SD (n = 4)): 0%; inhibition at 10 µM (17β-HSD10 [2]; [7]): 5.9 ± 0.8%
16 | C[C@]12CC[C@H]3[C@@H](CCC4=CC(=O)CC[C@@]43C)[C@@H]1CC[C@@H]2O [testosterone] |  |  |  |  | 10.3 ± 5.1 | 15.7 ± 3.8 | 0.0 ± 3.2 | 

— article PMC10938439, “C-3 Steroidal Hemiesters as Inhibitors of 17β-Hydroxysteroid Dehydrogenase Type 10” (ACS Omega, 2024)
